According to patent publication US20200289525A1, “Methods of Increasing Microbial Diversity of a Skin Microbiota” (The Procter & Gamble Company, priority 2019, published 2020):
“Also recorded” adds a separate entry of the source. Read-outs that look alike come from different tables or passages of the source.

Columns and labels:
skin microbiota [1] = conditions: skin having atopic dermatitis, in a body wash
skin microbiota [2] = conditions: four-week wash period
Description: Only qualified subjects with atopic dermatitis received treatment products during the treatment phase. These qualified subjects were each divided into three treatment groups. […]
Samples of microbiotas from skin with atopic dermatitis were subjected to sequence analyses to identify the various genera present on the skin and to measure relative abundances. In a first sequencing round, read lengths of 150-800 bp were obtained using the Closed OTU picking method. […] The second sequencing round yielded read lengths of 250-600 bp using the Cosed OTU picking method. […] The third sequencing round involved read lengths of 250-600 bp being obtained using the Cosed OTU picking method. […]
A study was conducted of the effect on skin microbiota of single washes or four-week wash periods of either a 0.5% zinc pyrithione body wash, a vehicle body wash, or a B7U bar soap wash. The relative abundances of 11 identified bacterial genera were monitored, along with a category of unclassified microbes. […]

skin microbiota [3] = conditions: atopic dermatitis lesion area, baseline vs four weeks of daily washes
Description: The effect of zinc pyrithione body wash on skin microbiota of subjects with atopic dermatitis with lesions was assessed using a standard leg wash assay. Subjects completed a 4-week period of daily leg washes with zinc pyrithione (BCP2ZPT), a B7U bar soap, or a vehicle control (BCP2). Samples were collected at baseline (study onset) and after 4 weeks of leg washings.
Another study was conducted to specifically assess the effect of a zinc ionophore, i.e., zinc pyrithione, on the skin microbiota diversity of atopic dermatitis lesions using standard body wash protocol well-known in the art. The washes were carried out on a daily basis over a four-week period and 16S rDNA sequencing was used to identify bacterial genera while qPCR amplification was used to quantify the abundance of the genera. Measurements were taken at baseline and after the four-week wash period. Controls involved subjects washing with B7U bar soap or the BCP2 vehicle alone. […]

skin microbiota [4] = test: Four-week daily wash of atopic dermatitis without lesions, 16S rDNA sequencing and qPCR (FIG. 6); assay type: in vivo, human; conditions: baseline vs four weeks of daily washing, p=0.027, FDR>0.05
Description: A study mirroring the study described in the brief description of FIG. 5 was conducted with subjects having atopic dermatitis without lesions substituted for subjects with atopic dermatitis with lesions. The relative abundance of Staphylococcus was measured using 16S rDNA sequencing and qPCR quantification. Subjects performed the standard leg wash using B7U bar soap, vehicle only (BCP2), or zinc pyrithione in BCP2 vehicle (BCP2ZPT). Samples were taken at the onset of the study to establish a baseline and after four weeks of leg washings.
A related experiment assessing the treatment effects of a zinc ionophore on skin microbiota diversity in subjects with atopic dermatitis without lesions was performed to assess the effects of the therapeutic in this context. The experimental design involved daily body washes of subjects with atopic dermatitis lacking visible lesions over a four-week period, with subjects engaging in daily washing with either B7U bar soap, vehicle alone (BCP2 base), or BCP2ZPT (which included 0.5% zinc pyrithione). Skin samples were again analyzed for microbiota composition by 16S rDNA sequencing with qPCR to quantify the abundances of the bacterial genera in the skin microbiotas.

Compound: [O-]n1ccccc1=S.[O-]n1ccccc1=S.[Zn+2] [zinc pyrithione, zinc salt of 1-hydroxy-2-pyridinethione]
- total bacterial level (skin microbiota [1]): lowers
- relative abundance of Staphylococcus (skin microbiota [2]; atopic dermatitis patients not exhibiting lesions): selectively reduces
- relative abundance of Staphylococcus (skin microbiota [2]; subjects with atopic dermatitis lesions): selectively reduces
- abundance of Kocuria (skin microbiota [3]): increased
- abundance of Staphylococcus (skin microbiota [4]): significantly reduced; also recorded: selective reduction
